Reference: patent publication US7846436B2, “Oligonucleotides and related compounds” (ChemGenes Corporation, priority 2003, dated 2010)
[dFC] = 2'-deoxy-2',2'-difluorocytidine (gemcitabine) nucleoside, linked at the 5' end of the ODN; d = 2'-deoxy (DNA)

Key:
[1] = Stability studies in pyridine and ammonia (TLC, Rf, UV, HPLC); format: physicochemical; settings: 37° C., 18 hrs
Method: The 2′-deoxy, 2′,2′-difluorocytidine derivatives, N-Bz-Gemcitabine and 5′-O-DMT-(N-bz) Gemcitabine prepared as above, were tested for their stability.

[2] = test system: human colon adenocarcinoma cancerous cells HT29; assay: Flow cytometric DNA cell cycle profile, killing of colon cancer cells; format: cell-based; settings: for killing colon cancer cells HT29, compared with Gemcitabine (Gemzar) alone at equivalent dosages: 20 and 50 ng/ml Gemzar equivalent, 1 hour treatment, then 47 hours in normal medium without drugs, FIG. 13
[3] = test system: human colon normal cells CCD112CoN; assay: Flow cytometric DNA cell cycle profile, killing of colon normal cells; format: cell-based; settings: 20 and 50 ng/ml Gemzar equivalent; 1 hour treatment, then 47 hours in normal medium without drugs; FIG. 14
Method: Monolayer cultures of human colon adenocarcinoma cancerous cells HT29 (American Type Culture Collection HTB-38), and human colon normal cells CCD112CoN (American Type Culture Collection CRL-1541) were grown in DMEM growth medium, or Dulbecco's modified Eagle's medium (DMEM; Sigma Chemical Co., St. Louis, Mo.) containing 10% fetal bovine serum (FBS; Biological Industries, Kibbutz, Israel). Incubation was in 10% CO2 at 37° C.
Gemzar (MW 299.5), or 2′-deoxy, 2′,2′-difluorocytidine hydrochloride for injection, as manufactured by Lilly France S.A., Fegersheim, France). Gemzar-ODNs were 2′-deoxy, 2′,2′-difluorocytidine (dFC, or difluorodeoxycitidine) linked to 4 oligodeoxynucleotide (ODN) sequences (synthesized by Chemgenes Corp, Wilmington, Mass.) as follows:
Aqueous stock solutions were prepared at the Gemzar or Gemzar-equivalent concentration of 0.2 mg/ml. Parallel monolayer cultures in log phase growth were treated for 1 hr at 37° C. with a final concentration of 0, 20 and 50 ng/ml of Gemzar or Gemzar equivalent from each of the 4 sequences of Gemzar-ODN that were synthesized. After the 1 hr pulse treatment with either Gemzar or Gemzar-ODNs, the cell cultures were reincubated for another 47 hr at 37° C. in normal DMEM growth medium without Gemzar or Gemzar-ODN. Control cultures were similar parallel cultures and had similar 1 hr and 47 hr reincubations, except without any Gemzar or Gemzar-ODN content. After the 47 hr reincubation, all cultures were evaluated at the same time for their DNA cell cycle profile using flow cytometry.
This was evaluated as previously described (Cell Death Differ. 4: 213-223, 1997; Exp. Cell Res. 240: 293-304, 1998). Propidium iodide (PI) stock solution was prepared at 50 ug/ml in tris buffered saline (1.21 mg/ml Tris, 0.584 mg/ml NaCl). Ribonuclease A (RNase A) was freshly added to the PI stock solution at 6 mg/ml immediately before use. Cells were harvested by scraping with a cell scraper and triturated to obtain a single cell suspension using a hypodermic syringe fitted with a 21-gauge needle. Cells were spun down at 1000 g for 5 min, and washed once in 5 ml phosphate buffered saline (PBS A, Oxoid, London, UK). Cells were then permeabilized by resuspending in 1% Bouin's fluid (15 parts 1.2% saturated aqueous picric acid, 5 parts formalin, 1 part glacial acetic acid) in PBS. Cells were repelleted and suspend in the PI-RNase for 1 hour over ice, before flow cytometric evaluation at ex/em 488/590 nm and 20,000 counts sample size. The Coulter Epics Elite ESP flow cytometer and Workstation program version 4.01 (Coulter Electronics, Hialeah, Fla.) were used with WinMDI version 2.8 (Scripps Research Institute, La Jolla, Calif.

| Compound | killing colon cancer cells HT29, compared with Gemcitabine (Gemzar) alone at equivalent dosages [2] | killing colon normal cells CCD-112CO, compared with Gemcitabine (Gemzar) alone at equivalent dosages [3] | further results |
| --- | --- | --- | --- |
| O=C(Nc1ccn([C@@H]2O[C@H](CO)[C@@H](O)C2(F)F)c(=O)n1)c1ccccc1 [Compound II, N-Benzoyl-2′-deoxy, 2′,2′-difluorocytidine] | – | – | stability (breakdown) in pyridine and ammonia [1]: converted into 2′-deoxy, 2′,2′-difluorocytidine completely without any deterioration and byproduct formation; stability (breakdown) in pyridine and ammonia ([1]; listed as N-Bz-Gemcitabine): no breakdown of Gemcitabine, other than loss of the protecting group |
| COc1ccc(C(OC[C@H]2O[C@@H](n3ccc(NC(=O)c4ccccc4)nc3=O)C(F)(F)[C@@H]2O)(c2ccccc2)c2ccc(OC)cc2)cc1 [Compound III, 5′-O-DMT (N-Bz) 2′-deoxy, 2′,2′-difluorocytidine] | – | – | stability (breakdown) in pyridine and ammonia [1]: no breakdown of Gemcitabine, other than loss of the protecting group |
| Cl.Nc1ccn([C@@H]2O[C@H](CO)[C@@H](O)C2(F)F)c(=O)n1 [Gemzar, 2′-deoxy, 2′,2′-difluorocytidine hydrochloride, reference compound] | – | – | difference between the killing of cancer cells and normal cells ([2]; HT29 (FIG. 13) compared with CCD-112CO (FIG. 14) at equivalent dosages): only minimal difference |
| dFC GGA CG (NGGACG; sugars from the 5' end [dFC]1 d5, backbone, methylation of C and the base at N not given here) [GEMCITABINE-ODN-Seq. I.D.#7, Gemzar-ODN] | much more effectively than by treatment with GEMCITABINE alone | more effectively than by treatment with GEMCITABINE alone | – |
| dFC GGA CGT GGA ACG (NGGACGTGGAACG; sugars from the 5' end [dFC]1 d12, backbone, methylation of C and the base at N not given here) [GEMCITABINE-ODN-Seq. I.D.#9, Gemzar-ODN] | much more effectively than by treatment with GEMCITABINE alone | more effectively than by treatment with GEMCITABINE alone | – |
| dFC GGA GCT GGA ACG (NGGAGCTGGAACG; sugars from the 5' end [dFC]1 d12, backbone, methylation of C and the base at N not given here) [GEMCITABINE-ODN-Seq. I.D.#10, Gemzar-ODN] | much more effectively than by treatment with GEMCITABINE alone | more effectively than by treatment with GEMCITABINE alone | – |
| dFC GTG GAA CG (NGTGGAACG; sugars from the 5' end [dFC]1 d8, backbone, methylation of C and the base at N not given here) [GEMCITABINE-ODN-Seq. I.D.#8, Gemzar-ODN] | much more effectively than by treatment with GEMCITABINE alone | more effectively than by treatment with GEMCITABINE alone | – |
